Assays:
Parameters in all cases: species or system Lymantria dispar
L. dispar PBP 1 = assay: Pheromone-binding protein (PBP) ligand binding assay, PBP1
Experimental: (§1) A. The protein and ligand are incubated in buffer overnight. B. For half of the incubation mixture, the free ligand (L) is separated from the protein-bound ligand (P.L) by size-exclusion chromatography on P2 Gel (BioRad, exclusion limit 2000 Da). The protein elutes from the small column bed, with its ligand bound (see Examples and […] et al. 2000; Staddon and Everton 1980), while the free ligand is retained on the column ([…] et al. 2000). C. […] The extract from the filtrate (B) contains the protein-bound ligand and the extract from the incubation mixture (A) contains all the ligand (bound and free) present in the aqueous phase. The extracts are analyzed by GC-MS, to obtain values for total ligand in solution (L+P.L) and for protein-bound ligand (P.L). These can then be used to calculate % bound (Table 3). These assays were performed as described in FIG. 3 and as follows: L. dispar PBP 1 or PBP 2 was incubated with the test compound or mini-library. The PBP and the ligand(s) (L) were left to equilibrate (eq 2) overnight. The non-bound ligand was then separated from the protein-bound material (PBP.L) by size-exclusion chromatography. By determining the total ligand in solution at equilibrium (eq. 3) and the protein-bound ligand, it is possible to estimate the percentage of ligand bound to the protein at equilibrium (eq. 4). […] This binding assay has been validated extensively in previous studies ([…] et al. 2000). The components of each mini-library separated cleanly by GC, so it was possible to monitor binding of individual components. PBP+L⇄PBP·L (eq. 2) [L]tot=[L]+[PBP·L] (eq. 3) % bound=100×[PBP·L]/[L]tot (eq. 4) Results: The members of each mini-library separated cleanly by GC, therefore it was possible to monitor binding of individual members to PBP1 or PBP2, the two known PBPs in the gypsy moth, by extraction from the aqueous incubation mixture, followed by GC analysis of the extract (FIG. 3).

male gypsy moth antenna = assay: Coupled gas chromatographic-electroantennographic detection (GC-EAD); conditions: EAD peak size and shape (sharp/broad)
How it was run: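 GC column effluent split between flame ionization detector and an excised male moth antenna held between saline-filled glass capillary electrodes, tip removed, in a warm air stream. Antennal potentials assigned to compounds by matching retention times with FID peaks.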

[1] = test system: male gypsy moth antenna response to pheromone (+)-1; assay: EAG short-term (STI) and long-term (LTI) inhibition of pheromone signaling (Example 5); conditions: for inhibition at 0.001 mg / inhibition at 0.01 mg / inhibition at 100 µg, 0.1 mg / inhibition at 0.1 mg: Lymantria dispar, mean ± S.E.; for inhibition at 0.001 mg: mixed plume (+)-1 100 ng + compound 1 μg; for inhibition at 0.001 mg / inhibition at 0.01 mg / inhibition at 0.1 mg: negative = enhancement, read-out: Activity (%): short-term inhibition (STI); for inhibition at 0.01 mg: mixed plume (+)-1 100 ng + compound 10 μg; for inhibition at 100 µg, 0.1 mg: pure (+)-1 100 ng plume following mixed plume with 100 μg compound, read-out: Activity (%): long-term inhibition (LTI); for inhibition at 0.1 mg: mixed plume (+)-1 100 ng + compound 100 μg (puff v)
Experimental: The puffs are numbered i-vi and were: i=air, ii=pure pheromone (+)-disparlure, (+)-1, (100 ng), iii-v=disparlure mixed with the test compound, the latter at three different doses, vi=pure (+)-1. Depolarizations from the resting potential are labeled d; hyperpolarizations seen during the recovery phase after a puff are labeled r. Subscripts refer to the puff number. FIG. 5A. Typical trace for compound 3c{2,3}. FIG. 5B. Typical trace for compound 3a{4,4}.
For other compounds, EAG traces were recorded as follows: a fully dislodged antenna from a male gypsy moth was mounted on the end of a reference electrode (a glass capillary with a silver wire, filled with buffered saline: 5 mM NaH2PO4, 10 mM Na2SO4, 4.5 mM KHCO3, 18 mM MgCl2, 4 mM CaCl2, 6 mM KCl, the pH is adjusted to 6.8 using 5 mM Na2HPO4). The tip of the antenna was severed with microscissors and placed in the recording electrode, which was mounted on a micromanipulator. A constant stream of air, that had been purified (charcoal filter), was blown over the antenna at a rate of 300 mL/min. Test samples were delivered through a stimulus delivery tube with a side opening 2 cm from the distal opening. The proximal end of the delivery tube was connected to a controlled stimulus delivery apparatus (Stimulus controller CS-05 Syntech Research and Equipment, NL 1200BM, Hilversum, The Netherlands). The distal end of the delivery tube pointed at the antenna (1 cm from the antenna). The side opening was connected to a cartridge fashioned from a Pasteur pipette which contained a small filter paper (Whatman No. 1) with the stimulus. These pipette cartridges could be prepared a few days in advance and stored at −80° C. wrapped in Al foil and in sealable plastic bags. Sample cartridges were mounted once they had reached room temperature. The stimulus delivery apparatus delivered a second stream of air (a puff) through the Pasteur pipette at a velocity of 600 mL/min, at a specified point in time, for 0.3 s. Receptor potentials of the antennae in response to test stimuli were recorded with a Syntech IDAC probe, amplifier and interfaced board, and were analyzed with EAG Syntech Software Version 2.4 (1996). See FIG. 4 for a representative EAG trace. The EAG traces were evaluated as follows (see FIG. 5).
The net depolarizations, d(net) (in mV), of puffs ii-vi,d(sample), (corrected for the depolarization with clean air, d(air)) d(net)=d(sample)−d(air) (Eq. 1)
The percentage short-term inhibition for each compound (STI(compound)) of puffs iii-v, relative to the first pure pheromone puff (ii) STI(compound)=100×(d(net)(ii)−d(net)(compound))/d(net)(ii) (Eq. 2)
c) the percentage long-term inhibition for each compound (LTI(compound)) of the pure pheromone puff that followed the last mixed puff (vi) relative to the first pure pheromone puff (ii) LTI(compound)=100×(d(net)(ii)−d(net)(vi))/d(net)(ii) (Eq. 3)
The compounds we tested gave weak or no olfactory responses by themselves in electroantennogram (EAG) experiments. The EAG trace reflects the change in the potential across the antenna when an air puff with an odorant is passed over the antenna. To understand the agonistic or antagonistic effect of the compounds on pheromone responses by male moth antennae, four types of EAG experiment were conducted. First, the response of the antenna elicited by a stimulus of pure (+)-1 was compared to the responses elicited by blends of (+)-1 with the test compound (FIG. 5). […] This effect was termed short-term inhibition (STI). […] Second, the time decay and dose responses for LTI activities were studied. Third, the strongest inhibitors were tested for their ability to cause LTI by themselves.
This experiment explored the agonistic or antagonistic activity of the synthetic aromatic compounds (Scheme 1 and eugenol and alkyl eugenols) with the gypsy moth pheromone (+)-1. […]

L. dispar PBP 2 = assay: Pheromone-binding protein (PBP) ligand binding assay, PBP2
Experimental: as §1

[2] = test system: response of L. dispar antennae to (+)-disparlure; assay: Competitive electroantennogram (EAG) screen, inhibition of response to (+)-disparlure (Example 4); conditions: Lymantria dispar, means ± S.E.; for inhibition at 0.001 mg: dose 1 μg on cartridge; for inhibition at 0.01 mg: dose 10 μg on cartridge; for inhibition at 0.1 mg: dose 100 μg on cartridge
Experimental: In this assay, libraries and individual compounds are tested for their ability to inhibit the antennal response to the sex attractant pheromone of the gypsy moth, (7R,8S) 2-methyl-7,8-epoxyoctadecane, also known as (+)-disparlure. The controls consisted of a puff of clean air (negative) or of air passed over a cartridge impregnated with (+)-disparlure (100 ng) (positive). The treatments consisted of 100 ng of (+)-disparlure in combination with a compound or library at 1, 10 or 100 μg, on a cartridge over which the air puff was passed. The small arrows above the trace denote the times where the air was puffed over the antenna.
For some compounds, such as the para Compounds 2c{n}, 2c{n,n} and libraries 3c{n,1-5}, EAG competitive assays were performed to investigate whether the diethers inhibit the response of L. dispar antennae to the main component of the sex attractant pheromone cis-(7R,8S)-epoxy-2-methyloctadecane [(+)-disparlure] (FIG. 4). For EAGs a male moth antenna was mounted and placed in front of a stimulus-delivery glass tubing (160×5 mm ID) with a side orifice (2 mm diam) near (2 cm) the distal opening. The tubing was connected to one port of an apparatus (Stimulus Controller CS-05, Syntech Research and Equipment, NL-1200BM Hilversum, The Netherlands) that generated a constant stream of clean air (300 ml/min). The second port of the apparatus was connected to a Pasteur pipette inserted through the side orifice of the stimulus-delivery tubing. The test stimulus was applied to a disc of Whatman #1 filter paper inside the Pasteur pipette and was discharged through a 0.3-sec pulse of air (600 ml/min) Receptor potentials of the antennae in response to test stimuli were recorded with a Syntech IDAC probe, amplifier and interfaced board, and were analyzed with EAG Syntech Software Version 2.4 (1996) Inhibition (%) was calculated as: % inhibition=(Dd−Ds)/Dd×100 (eq. 1)
Where Dd is the depolarization observed with pure disparlure (corrected for clean air background) and Ds is the depolarization with disparlure+sample. See FIG. 4 for a representative EAG inhibition assay trace.

[3] = member tested within library 3c{4, 1-5}
[4] = tested as single compound, means ± S.E., 4 replicates
[5] = member tested within library 3c{1, 1-5}
[6] = member tested within library 3c{2, 1-5}
[7] = member tested within library 3c{5, 1-5}

SMILES: CCCCOc1ccc(OC)cc1 [3c{1,4}, 1-butoxy-4-methoxy benzene]
- PBP1 (% bound) (L. dispar PBP 1; [3]): 20 ± 0.4%
- GC-EAD activity (male gypsy moth antenna): None

SMILES: CCCCOc1ccc(OCCCC)cc1 [3c{4,4}, 1,4-Dibutoxy benzene]
- PBP1 (% bound) (L. dispar PBP 1; [4]): 4 ± 0.1%
- inhibition at 0.001 mg [1]: -107 ± 41%
- inhibition at 0.01 mg [1]: -90 ± 57%
- inhibition at 100 µg, 0.1 mg [1]: 7 ± 14%
- PBP2 (% bound) (L. dispar PBP 2; [4]): 8 ± 0.3%

SMILES: CCCCOc1ccc(OCCC)cc1 [3c{3,4}, 1-butoxy-4-propoxy benzene]
- PBP1 (% bound) (L. dispar PBP 1; [3]): 4 ± 0.3%
- GC-EAD activity (male gypsy moth antenna): None
- inhibition at 0.001 mg [1]: -11 ± 18%
- inhibition at 0.01 mg [1]: -90 ± 23%
- inhibition at 0.1 mg [1]: -180 ± 26%
- inhibition at 100 µg, 0.1 mg [1]: 22 ± 12%

SMILES: CCOc1ccc(OC)cc1 [3c{1,2}, 1-ethoxy-4-methoxy benzene]
- PBP1 (% bound) (L. dispar PBP 1; [5]): 15 ± 0.4%
- PBP1 (% bound) (L. dispar PBP 1; [6]): 30 ± 0.2%
- GC-EAD activity (male gypsy moth antenna): ++ sharp
- PBP2 (% bound) (L. dispar PBP 2; [5]): 12 ± 1.5%
- PBP2 (% bound) (L. dispar PBP 2; [6]): 40 ± 0.1%

SMILES: CCCCOc1ccc(OCC)cc1 [3c{2,4}, 1-butoxy-4-ethoxy benzene]
- PBP1 (% bound) (L. dispar PBP 1; [3]): 10 ± 0.4%
- GC-EAD activity (male gypsy moth antenna): None

SMILES: CC(C)CCOc1ccc(O)cc1 [2c{5}, 4-(3-Methyl-butyloxy) phenol]
- inhibition at 0.001 mg [2]: 38 ± 17%
- inhibition at 0.01 mg [2]: 38 ± 27%
- inhibition at 0.1 mg [2]: 19 ± 20%
- GC-EAD activity (male gypsy moth antenna): None
- short-term effect on antennal pheromone response (in words) [1]: antagonistic
- inhibition at 0.001 mg [1]: 47 ± 14%
- inhibition at 0.01 mg [1]: 77 ± 7%
- inhibition at 0.1 mg [1]: 49 ± 7%
- inhibition at 100 µg, 0.1 mg [1]: 2 ± 4%

SMILES: CCCCOc1ccc(OCCC(C)C)cc1 [3c{4,5}, 1-butoxy-4-(3-methyl-butyloxy) benzene]
- PBP1 (% bound) (L. dispar PBP 1; [3]): 4 ± 0.4%
- GC-EAD activity (male gypsy moth antenna): None

SMILES: COc1ccc(OCCC(C)C)cc1 [3c{1,5}, 1-methoxy-4-(3-methyl-butyloxy) benzene]
- PBP1 (% bound) (L. dispar PBP 1; [5]): 1 ± 0.7%
- PBP1 (% bound) (L. dispar PBP 1; [7]): 7 ± 0.1%
- GC-EAD activity (male gypsy moth antenna): None
- PBP2 (% bound) (L. dispar PBP 2; [5]): 2 ± 2.5%
- PBP2 (% bound) (L. dispar PBP 2; [7]): 5 ± 0.1%

SMILES: COc1ccc(O)cc1 [2c{1}, 4-Methoxy phenol]
- inhibition at 0.001 mg [2]: 10 ± 5%
- inhibition at 0.01 mg [2]: 55 ± 11%
- inhibition at 0.1 mg [2]: 43 ± 12%
- GC-EAD activity (male gypsy moth antenna): None
- inhibition at 0.001 mg [1]: 8 ± 12%
- inhibition at 0.01 mg [1]: 21 ± 20%
- inhibition at 0.1 mg [1]: -16 ± 25%
- inhibition at 100 µg, 0.1 mg [1]: 10 ± 7%

SMILES: CCCOc1ccc(O)cc1 [2c{3}, 4-Propoxy phenol]
- inhibition at 0.001 mg [2]: 17 ± 14%
- inhibition at 0.01 mg [2]: 43 ± 14%
- inhibition at 0.1 mg [2]: 35 ± 12%
- GC-EAD activity (male gypsy moth antenna): None
- inhibition at 0.001 mg [1]: 7 ± 31%
- inhibition at 0.01 mg [1]: 29 ± 34%
- inhibition at 0.1 mg [1]: 38 ± 12%
- inhibition at 100 µg, 0.1 mg [1]: -8 ± 7%

SMILES: CCOc1ccc(O)cc1 [2c{2}, 4-Ethoxy phenol]
- inhibition at 0.001 mg [2]: 49 ± 10%
- inhibition at 0.01 mg [2]: 64 ± 9%
- inhibition at 0.1 mg [2]: 45 ± 8%
- GC-EAD activity (male gypsy moth antenna): None
- inhibition at 0.001 mg [1]: -3 ± 4%
- inhibition at 0.01 mg [1]: 55 ± 5%
- inhibition at 0.1 mg [1]: 47 ± 5%
- inhibition at 100 µg, 0.1 mg [1]: 7 ± 4%

From patent US9497963B2, “Methods and compositions for control of gypsy moth, Lymantria dispar” (Simon Fraser University, priority 2008, dated 2016)
